From paper PMC10298982, “Stability Characterization of the Novel Anti-Cancer HM-10/10 HDL-Mimetic Peptide” (International Journal of Molecular Sciences, 2023)

How the values were obtained:
CYP2C8 = target: T1, CYP2C8 (Homo sapiens, UniProt P10632); test: CYP450 time-dependent inhibition, CYP2C8, pooled human liver microsomes; conditions: Amodiaquine (2C8)
T1 sequence (P10632 1-490): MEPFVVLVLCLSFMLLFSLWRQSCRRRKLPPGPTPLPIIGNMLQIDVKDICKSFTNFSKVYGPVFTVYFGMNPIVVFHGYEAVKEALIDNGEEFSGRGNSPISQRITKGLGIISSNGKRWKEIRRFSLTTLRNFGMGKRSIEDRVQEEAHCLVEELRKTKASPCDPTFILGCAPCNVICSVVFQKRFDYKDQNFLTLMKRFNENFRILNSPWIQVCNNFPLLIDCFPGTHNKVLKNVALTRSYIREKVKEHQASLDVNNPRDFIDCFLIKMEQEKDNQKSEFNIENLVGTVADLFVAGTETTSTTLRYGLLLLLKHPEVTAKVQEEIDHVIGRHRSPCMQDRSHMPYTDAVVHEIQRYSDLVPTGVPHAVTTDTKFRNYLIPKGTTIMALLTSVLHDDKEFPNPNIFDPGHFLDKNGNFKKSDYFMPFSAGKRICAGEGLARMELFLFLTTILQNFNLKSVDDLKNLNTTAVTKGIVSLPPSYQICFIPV

CYP2B6 [1] = test: CYP2B6 induction (enzyme activity) in single-donor human hepatocytes; conditions: 1000 µM (positive control)
Experimental: The transport medium was replaced with 200 μL of warm (37 °C) incubation medium (InVitroGRO HI, BioIVT Catalog No. Z99009) and the plate was placed in a humidified 5% carbon dioxide incubator at 37 °C for 24 h.
In addition, test article vehicle (PBS) was added to warm (37°C) InVitroGRO HI Medium in a 5:95 (v:v) ratio. […] The plates were removed from the incubator and the hepatocytes were prepared for the induction assay by replacing the cell culture medium with medium containing either the test article, a control inducer, or vehicle control (200 µL per well). The hepatocyte plates were returned to the cell culture incubator and incubated for 24 h.
On Day 3, induction was repeated following the same steps as described above for the previous day, and plates were returned to the cell culture incubator for an additional 24 h.
After aliquots were taken to measure test article stability, all the remaining medium from each well in the hepatocyte plate was removed, all wells were washed once using 200 μL of blank assay buffer, and then 100 μL of the 1000-fold diluted substrate solutions were added to the appropriate wells. The assay plate was returned to the humidified 5% carbon dioxide incubator at 37 °C for 1 h incubation.
At the end of the incubation time, 100 μL of mRNA lysis buffer was added to each well to stop the reaction. Fifty microliters of this reaction mixture were transferred into a new plate and quenched with 200 μL of ice-cold acetonitrile containing a CYP-specific stable labeled internal standard (250 ng/mL acetaminophen-d4, 250 ng/mL hydroxybupropion-d6, or 250 ng/mL hydroxytestosterone-d3). After removal of the aliquots from the plate for enzyme activity determination, the assay plates were sealed and stored in a −70 °C freezer until use for RT-PCR, mRNA analysis.
For the induction assay samples, an aliquot (50 µL) of the supernatant was transferred to a new plate and diluted with 100 µL Milli-Q water. For the test article stability samples, an aliquot (50 µL) of the supernatant was transferred to a new plate and diluted with 60 µL 0.1% formic acid in Milli-Q water. These samples for the enzyme activity assay and article stability test were refrigerated for storage until analysis. […]
HM1010: Induction Potential of Cytochrome P450 Enzymes
(CYP1A2, CYP2B6 and CYP3A4) Using Human Cryopreserved Hepatocytes
Testing Facility Study No.
The purpose of this in-vitro study was to determine the induction potential of HM1010 on human
cytochrome P450 (CYP) isoenzyme (1A2, 2B6 and 3A4) activity. The study design is
Matrix: Inducible cryopreserved human hepatocytes three single-donor lots
Assay Buffer: InVitroGRO KHB
Substrates: Phenacetin (1A2), Bu propion (2B6), and Testosterone (3A4)
Assay conditions: 48 hours at 37°C in humidified 5% carbon dioxide incubator
Analysis: LC-MS/MS (enzyme activity) and mRNA analysis

CYP2B6 [2] = test: CYP2B6 induction (mRNA expression) in single-donor human hepatocytes; assay type: in vitro ADME; conditions: 1000 µM (control)
Experimental: RNA isolation and quantification: E-Z 96 Total RNA Kit (Omega Bio-tek, Catalog No. R1034-02) was used for RNA isolation and Quant-iT RNA assay kit (ThermoFisher, Catalog No. Q33140) was used for RNA quantification. The plates were removed from a −80 °C freezer and equilibrated to room temperature. RNA was extracted using the manufacturer’s recommended protocol. Eighty-one microliters of 100% ethanol were added into each well containing 150 µL of lysed sample to make a final ethanol concentration at 35%.
cDNA generation: For cDNA generation, a High-Capacity cDNA Reverse Transcription Kit (Applied Biosystems, Catalog No. 4319983) and QuantStudio 3 PCR system (Applied Biosystems) were used. In this step, 2X Reverse Transcription Master Mix was prepared using the contents of the kit. Then, 10 µL of total RNA was added to 10 µL of 2X Reverse Transcription Master Mix in a microplate and the plate was sealed. This plate was then run in a thermocycler to generate cDNA.
Real time PCR: SsoAdvanced Universal SYBR® Green Supermix (BIO-RAD, Catalog No. 172-5270) and the QuantStudio 3 Real-Time PCR system (Applied Biosystems) were used to perform real-time PCR on the generated cDNA. In this step, a PCR mix was prepared using PCR Supermix, SYBR® primers for the targeted genes, and nuclease-free water. Two microliters of ten-fold diluted cDNA samples (5 µL of cDNA into 45 μL of nuclease-free water) were added to 8 µL of PCR Mix in a microplate and sealed. This plate was then run through the Real-Time PCR system to generate the mRNA expression data.
• Human GAPDH • F: […] • R: […] • Human CYP1A2 • Unique Assay ID: qHsaCID0015160 • Chromosome Location: 15:75045562-75047256 • Human CYP2B6 • F: […] • R: […] • Human CYP3A4 • F: […] • R: […]

CYP2D6 [3] = target: T2, CYP2D6 (Homo sapiens, UniProt P10635)
T2 sequence (P10635 whole entry): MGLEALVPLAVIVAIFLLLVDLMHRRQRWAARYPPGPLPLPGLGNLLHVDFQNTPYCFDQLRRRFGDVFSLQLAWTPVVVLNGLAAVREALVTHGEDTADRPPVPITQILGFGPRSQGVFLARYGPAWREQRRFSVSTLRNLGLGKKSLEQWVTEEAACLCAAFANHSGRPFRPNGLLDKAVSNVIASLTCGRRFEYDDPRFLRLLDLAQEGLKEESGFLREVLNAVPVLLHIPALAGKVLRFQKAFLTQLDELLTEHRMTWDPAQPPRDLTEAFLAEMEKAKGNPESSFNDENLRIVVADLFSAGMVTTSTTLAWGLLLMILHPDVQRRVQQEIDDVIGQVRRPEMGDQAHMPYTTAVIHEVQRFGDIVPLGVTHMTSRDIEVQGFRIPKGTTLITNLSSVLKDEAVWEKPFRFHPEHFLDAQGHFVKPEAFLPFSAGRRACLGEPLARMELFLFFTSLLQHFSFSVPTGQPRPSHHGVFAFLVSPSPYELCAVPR

CYP2D6 [4] = target: T2, CYP2D6; test: in vitro; conditions: both, microsomes
in vitro [5] = conditions: Sprague-Dawley, rat, plasma, pH 7.4
Experimental: Samples were tested at 2 μM.
(§1) The supernatant was removed and incubated at 37 °C for at least 10 min before use. The pH of each matrix was checked and adjusted to pH 7.4 using 10% phosphoric acid or 1 N sodium hydroxide as necessary.
(§2) Test and control article stock solutions were spiked (1.5 µL) into matrix (0.749 mL) to a final assay concentration of 2 µM and mixed. […] These tubes were sealed and incubated at 37 °C with shaking.
(§3) The quenched samples were mixed briefly by vortexing and stored in a −20 °C freezer.
(§4) Sample plates were stored refrigerated until analysis.
(§5) The column was set to a temperature of 55 °C. […] The instrument was equipped with an electrospray ionization source (500 °C) operated in positive-ion mode.
(§6) Peak area ratios for IS-normalized test article and control article counts were used to calculate the percent remaining relative to the time zero (T0) value. As appropriate, results were plotted and further analyzed to calculate half-life (T1/2) values.
(§7) Mean peak ratios were used to calculate the percent remaining relative to the T0 value: % Remaining at Timex = (mean peak area ratio Tx/mean peak ratio T0) × 100.

in vitro [6] = conditions: cynomolgus monkey, plasma, pH 7.4
Experimental: Samples were tested at 2 μM.
as §1, §2, §3, §4, §5, §6, §7

in vitro [7] = conditions: beagle, dog, plasma, pH 7.4
Experimental: Samples were tested at 2 μM.
as §1, §2, §3, §4, §5, §6, §7

in vitro [8] = conditions: human, plasma, pH 7.4
Experimental: Samples were tested at 2 μM.
as §1, §2, §3, §4, §5, §6, §7

in vitro [9] = conditions: CD-1, mouse, plasma, pH 7.4
Experimental: Samples were tested at 2 μM.
as §1, §2, §3, §4, §5, §6, §7

## O=c1c(O)c(-c2ccc(O)c(O)c2)oc2cc(O)cc(O)c12 [Quercetin, quercetin]
CYP2C8
  Comments (time-dependent inhibition): No TDI
CYP2C8; 50 µM, No PI + NADPH
  % Inhibition at 50 µM No PI + NADPH: 100.5%
CYP2C8; 50 µM, No PI − NADPH
  % Inhibition at 50 µM No PI − NADPH: 100.9%
CYP2C8; 50 µM, PI + NADPH
  % Inhibition at 50 µM PI + NADPH: 100.8%
CYP2C8; 50 µM, PI − NADPH
  % Inhibition at 50 µM PI − NADPH: 100.5%

## CCC1(c2ccccc2)C(=O)NC(=O)NC1=O [Phenobarbital, phenobarbital, reference compound]
CYP2B6 [1]
  Fold Increase (Enzyme Activity) Lot HH1086: 11.8 fold
  Fold Increase (Enzyme Activity) Lot HH1142: 21.4 fold
  Fold Increase (Enzyme Activity) Lot HH1144: 7.23 fold
CYP2B6 [1]; mean of three lots
  Fold Increase (Enzyme Activity) Mean: 13.5 fold
CYP2B6 [2]
  Comments (mRNA induction): Induced as Expected
  Fold Increase (mRNA Expression) Lot HH1086: 15.5 fold
  Fold Increase (mRNA Expression) Lot HH1142: 22.3 fold
  Fold Increase (mRNA Expression) Lot HH1144: 7.54 fold
  Fold Increase (mRNA Expression) Mean of 3 Lots: 15.1 fold

## Fc1ccc([C@@H]2CCNC[C@H]2COc2ccc3c(c2)OCO3)cc1 [Paroxetine, paroxetine]
CYP2D6 [3]
  Comments (time-dependent inhibition): +TDI
CYP2D6 [4]; pH 7.4, % Inhibition at 50 µM No PI + NADPH
  inhibition at 30 min, 50 µM: 99%
CYP2D6 [4]; pH 7.4, % Inhibition at 50 µM No PI − NADPH
  inhibition at 30 min, 50 µM: 99.1%
CYP2D6 [4]; pH 7.4, % Inhibition at 50 µM PI + NADPH
  inhibition at 30 min, 50 µM: 100%
CYP2D6 [4]; pH 7.4, % Inhibition at 50 µM PI − NADPH
  inhibition at 30 min, 50 µM: 99%

## CC[C@H](C)C(=O)O[C@H]1C[C@@H](C)C=C2C=C[C@H](C)[C@H](CC[C@@H]3C[C@@H](O)CC(=O)O3)[C@H]21 [Lovastatin, lovastatin]
In vitro [5]
  half-life at 2 µM: 8.26 min
In vitro [6]
  half-life at 2 µM: > 2 h
  remaining at 2 h, 2 µM: 115%
In vitro [7]
  half-life at 2 µM: 7.42 h
  remaining at 2 h, 2 µM: 73.2%
In vitro [8]
  half-life at 2 µM: 10.8 h
  remaining at 2 h, 2 µM: 81.1%
In vitro [9]
  half-life at 2 µM: 0.24 h
